Results from patent US20150374673A1, “Combination Therapy for the Treatment of Nosocomial Pneumonia” (priority 2013, published 2015).

What was measured:
P. aeruginosa = assay: Neutropenic thigh infection model (CD-1 mice), exposure response of ceftazidime q2h and avibactam; assay type: in vivo, Pseudomonas aeruginosa; conditions: for % fT>CT required to support a bacteriostatic effect: CT 1 mg/L; for Emax model maximum / Emax model minimum: ceftazidime q2h and avibactam q2h, SE between brackets; for % fT > CT1 of avibactam associated with 24-h stasis: CT1 = threshold concentration of 1 mg/L; for static % fT > MIC (CAZ): ceftazidime monotherapy q2h
Procedure: CD-1 neutropenic mice were infected with appr. 10^6 cfu β-lactamase-producing P. aeruginosa strains in the thigh.
Outbred female CD-1 mice (Charles River, Netherlands), 4 to 5 weeks old, weighing 20 to 25 g were used in the experiments. Granulocytopenia was induced by two doses of cyclophosphamide s.c.: one at four days (150 mg/kg) and the other at one day (100 mg/kg) before the infection experiment.
The neutropenic mice were infected with 2 P. aeruginosa strains per animal, one in the left and one in the right thigh. 0.05 mL of bacterial suspension consisting of approximately 10^5-10^6 bacteria was inoculated intramuscularly. […] All dosing regimens were performed in at least two animals. At t=0 h, 2 mice were humanely sacrificed to determine the initial inoculum just before treatment. All other animals were sacrificed at t=24 h unless the welfare of the animals indicated earlier termination was necessary, following animal welfare regulations. Thighs were taken and moved to a pre-cooled 10-mL plastic tube (Transport Tube, Omnilabo, NL) ? containing 2 mL phosphate buffered saline (PBS; NaCl 8.00 g/L, Na2HPO42H2 1.44 g/L, KH2PO4 0.26 g/L, pH 7.2-7.4). Subsequently thighs were ground using an Ultra-Turrax (IKA Labortechnik, Germany). A tenfold dilution series was prepared and 3×10 μL plated (Chromagar, Biomerieux, NL) per dilution. The following day, colonies were counted and the number of cfu per thigh calculated. The drug effect was then determined as the difference between the log10[cfu/thigh] values at t=24 h and t=0 h (mean value of 2 mice) expressed as “dcfu”.
The amount of avibactam administered varied in frequency and dose. […] The drug effect was determined as the difference between the log10 [cfu/thigh] values at t=24 h and t=0 h (mean value of 2 mice) expressed as dcfu. Free drug concentrations were used in all calculations. […] Oral presentation at the ? 52nd Interscience Conference on Antimicrobial Agents and Chemotherapy, San Francisco, Calif. Abstract #A-1760).

[1] = Serum and epithelial lining fluid (ELF) pharmacokinetics of ceftazidime-avibactam human simulated regimen in infected and uninfected mice; conditions: for fT > MIC: human simulated CAZ-AVI 2000-500 mg q8h 2 h infusion; for Kp at 16 h / Kp at 18.5 h / Kp at 22 h / Kp at 24 h: female, ICR, mouse, epithelial lining fluid (ELF) vs serum, ELF point Penetration Ratio, ELF vs serum, third dosing interval
Procedure: Pathogen-free, female ICR mice weighing approximately 25 g were acquired from Harlan Sprague Dawley, Inc. (Indianapolis, Ind.) and utilized throughout these experiments. Animals were maintained and used in accordance to National Research Council recommendations, and provided food and water ad libitum. Mice were rendered neutropenic with 100 and 250 mg/kg intraperitoneal injections of cyclophosphamide (Cytoxan®; Bristol-Myers Squibb, Princeton, N.J.) given one and four days prior to inoculation, respectively. Three days prior to inoculation, mice were also given a single 5 mg/kg intraperitoneal injection of uranyl nitrate. This produces a predictable degree of renal impairment to slow drug clearance. Two hours prior to the initiation of antimicrobial therapy, mice were lightly anesthetized using isofluorane (2.5% v/v in 100% oxygen carrier) until the respiratory rate decreased upon visual inspection. Pneumonia was induced by the instillation of 0.05 mL of a 10^7 CFU inoculum of the test isolate suspended in 3% mucin in normal saline. While the mouse is anesthetized, the inoculum is delivered into the animal's oral cavity, blocking the nares and holding the mouse in a vertical position. Aspiration of bacteria into the lungs occurred as the animals began to spontaneously respire.
In these studies, we utilized the previously determined dosing regimen described above. Confirmatory serum pharmacokinetic studies were undertaken in infected mice. For these studies, infected neutropenic mice were dosed with the above calculated regimen and groups of six mice ? were euthanized at multiple time points throughout a 24 h period to confirm target exposures blood was collected via cardiac puncture and the serum samples were stored at −80° C. until analysis. Pharmacokinetic studies were undertaken to describe the epithelial lining fluid concentrations in infected mice. For these studies, infected neutropenic mice were dosed with the above calculated regimen and groups of six mice were euthanized at multiple time points throughout the third dosing period (i.e. 16-24 h). Once euthanized, serum and BAL samples were collected as described above. Serum and BAL samples were stored at −80° C. until analysis.

[2] = 6 P. aeruginosa strains, with fixed ceftazidime q2h, thigh
[3] = strain 1, thigh infection, Dose CAZ 32 mg/kg
[4] = strain 5, thigh infection, Dose CAZ 64 mg/kg
[5] = strain 7, thigh infection, Dose CAZ 64 mg/kg
[6] = strain 11, thigh infection, Dose CAZ 64 mg/kg
[7] = strain 18, thigh infection, Dose CAZ 64 mg/kg
[8] = strain 19, thigh infection, Dose CAZ 32 mg/kg

SMILES: NC(=O)[C@@H]1CC[C@@H]2CN1C(=O)N2OS(=O)(=O)[O-].[Na+] [avibactam, [(2S,5R)-2-carbamoyl-7-oxo-1,6-diazabicyclo[3.2.1]octan-6-yl]hydrogen sulfate]
- mean % fT>CT 1 mg/L for static effect (P. aeruginosa; [2]): 36.3%
- range of % fT>CT 1 mg/L for static effect (P. aeruginosa; [2]): 14.1-62.5
- % fT>CT required to support a bacteriostatic effect (P. aeruginosa; strain 7, thigh): 30.2
- % fT>CT required to support a bacteriostatic effect (P. aeruginosa; strain 18, thigh): 74.1
- % fT>CT required for static effect (P. aeruginosa; CT of 1 mg/L, dose fractionation studies, 2 strains, with ceftazidime q2h, thigh): 30.2-74.1
- % fT > CT1 of avibactam associated with 24-h stasis, mean (P. aeruginosa; mean of 6 strains (sd 17.8), thigh infection, CT1 = 1 mg/L): 36.3%
- Emax model maximum (P. aeruginosa; strain 1): 1.26
- Emax model minimum (P. aeruginosa; strain 1): ≈′−727.5
- TDD AVI associated with 24-h stasis (P. aeruginosa; [3]): 123.70 mg/kg
- log TDD AVI associated with 24-h stasis (P. aeruginosa; [3]): 2.09
- % fT > CT1 of avibactam associated with 24-h stasis (P. aeruginosa; [3]): 37.2%
- Emax model maximum (P. aeruginosa; strain 5): ≈0.70
- Emax model minimum (P. aeruginosa; strain 5): −3.25 (0.95)
- TDD AVI associated with 24-h stasis (P. aeruginosa; [4]): 33.59 mg/kg
- log TDD AVI associated with 24-h stasis (P. aeruginosa; [4]): 1.53
- % fT > CT1 of avibactam associated with 24-h stasis (P. aeruginosa; [4]): 14.1%
- Emax model maximum (P. aeruginosa; strain 7): 1.81 (0.29)
- Emax model minimum (P. aeruginosa; strain 7): −2.83 (1.41)
- TDD AVI associated with 24-h stasis (P. aeruginosa; [5]): 267.47 mg/kg
- log TDD AVI associated with 24-h stasis (P. aeruginosa; [5]): 2.43
- % fT > CT1 of avibactam associated with 24-h stasis (P. aeruginosa; [5]): 50.4%
- Emax model maximum (P. aeruginosa; strain 11): 1.40 (0.50)
- Emax model minimum (P. aeruginosa; strain 11): −2.95 (0.41)
- TDD AVI associated with 24-h stasis (P. aeruginosa; [6]): 77.88 mg/kg
- log TDD AVI associated with 24-h stasis (P. aeruginosa; [6]): 1.89
- % fT > CT1 of avibactam associated with 24-h stasis (P. aeruginosa; [6]): 29.1%
- Emax model maximum (P. aeruginosa; strain 18): 0.83 (0.36)
- Emax model minimum (P. aeruginosa; strain 18): −2.36 (0.23)
- TDD AVI associated with 24-h stasis (P. aeruginosa; [7]): 58.91 mg/kg
- log TDD AVI associated with 24-h stasis (P. aeruginosa; [7]): 1.77
- % fT > CT1 of avibactam associated with 24-h stasis (P. aeruginosa; [7]): 24.2%
- Emax model maximum (P. aeruginosa; strain 19): 2.46 (0.22)
- Emax model minimum (P. aeruginosa; strain 19): −1.42 (0.46)
- TDD AVI associated with 24-h stasis (P. aeruginosa; [8]): 541.34 mg/kg
- log TDD AVI associated with 24-h stasis (P. aeruginosa; [8]): 2.73
- % fT > CT1 of avibactam associated with 24-h stasis (P. aeruginosa; [8]): 62.5%
- effect on ceftazidime static % fT>MIC (P. aeruginosa; thigh infection, all strains): reduced
- fT > MIC ([1]; MIC 4, ELF, infected mice): 3%
- fT > MIC ([1]; MIC 4, ELF, uninfected mice): 19%
- fT > MIC ([1]; MIC 4, Serum, infected mice): 34%
- fT > MIC ([1]; MIC 4, Serum, uninfected mice): 19%
- Kp at 16 h ([1]; infected mice): 0.59
- Kp at 18.5 h ([1]; infected mice): 0.66
- Kp at 22 h ([1]; infected mice): 0.69
- Kp at 24 h ([1]; infected mice): 0.8
- Kp at 16 h ([1]; uninfected mice): 0.86
- Kp at 18.5 h ([1]; uninfected mice): 0.74
- Kp at 22 h ([1]; uninfected mice): 0.93
- Kp at 24 h ([1]; uninfected mice): 0.95

SMILES: CC(C)(O/N=C(\C(=O)N[C@@H]1C(=O)N2C(C(=O)[O-])=C(C[n+]3ccccc3)CS[C@H]12)c1csc(N)n1)C(=O)O [ceftazidime, (6R,7R)-7-[[(2Z)-2-(2-amino-1,3-thiazol-4-yl)-2-(1-hydroxy-2-methyl-1-oxopropan-2-yl)oxyiminoacetyl]amino]-8-oxo-3-(pyridin-1-ium-1-ylmethyl)-5-thia-1-azabicyclo[4.2.0]oct-2-ene-2-carboxylate pentahydrate]
- static % fT > MIC (CAZ) (P. aeruginosa; isolate no. 1): no effect
- static % fT > MIC (CAZ) (P. aeruginosa; isolate no. 3): 0%
- static % fT > MIC (CAZ) (P. aeruginosa; isolate no. 5): 3%
- static % fT > MIC (CAZ) (P. aeruginosa; isolate no. 7): 7.2%
- static % fT > MIC (CAZ) (P. aeruginosa; isolate no. 11): no effect
- static % fT > MIC (CAZ) (P. aeruginosa; isolate no. 18): 9%
- static % fT > MIC (CAZ) (P. aeruginosa; isolate no. 19): 38%
- fT > MIC ([1]; MIC 4, ELF, infected mice): 100%
- fT > MIC ([1]; MIC 4, ELF, uninfected mice): 100%
- fT > MIC ([1]; MIC 4, Serum, infected mice): 100%
- fT > MIC ([1]; MIC 4, Serum, uninfected mice): 100%
- fT > MIC ([1]; MIC 32, ELF, infected mice): 0%
- fT > MIC ([1]; MIC 32, ELF, uninfected mice): 34%
- fT > MIC ([1]; MIC 32, Serum, infected mice): 50%
- fT > MIC ([1]; MIC 32, Serum, uninfected mice): 62%
- Kp at 16 h ([1]; infected mice): 2.13
- Kp at 18.5 h ([1]; infected mice): 0.8
- Kp at 22 h ([1]; infected mice): 0.3
- Kp at 24 h ([1]; infected mice): 0.95
- Kp at 16 h ([1]; uninfected mice): 1.02
- Kp at 18.5 h ([1]; uninfected mice): 0.8
- Kp at 24 h ([1]; uninfected mice): 0.64
